From ChEMBL document CHEMBL1201862, “PubChem BioAssay data set” (2004)
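Each compound was tested at five concentrations against cells in 96-well plates for 48 hours. GI50 = concentration required for 50% inhibition of growth.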 Activity calls are given as the source filed them. Rule as the data show it: active = GI50 up to about 1.1 µM and inactive = higher. Where a SMILES comes first, the peptide text is derived from it. [ ]: non-standard residue; d: D form. The star is where a group is joined. ξ: configuration not given here. ξD = NC(CC(=O)O)C(=O)O; Boc = CC(C)(C)OC(=O)*; Aib = CC(C)(N)C(=O)O; OBn = c1ccc(CO*)cc1

Legend:
Test in all cases: growth of human tumour cells (NCI), 48 h
[1] = test system: TK-10
[2] = test system: SK-MEL-2
[3] = test system: Malme-3M
[4] = test system: OVCAR-5
[5] = test system: UACC-257
[6] = test system: OVCAR-4
[7] = test system: CCRF-CEM
[8] = test system: KM12
[9] = test system: K562
[10] = test system: OVCAR-8
[11] = test system: A498
[12] = test system: NCI-H226
[13] = test system: HOP-62
[14] = test system: SF-295
[15] = test system: U-251
[16] = test system: COLO 205
[17] = test system: DU-145
[18] = test system: IGROV-1
[19] = test system: LOX IMVI

Row | Structure (SMILES) | GI50 [1] | GI50 [2] | GI50 [3] | GI50 [4] | GI50 [5] | GI50 [6] | GI50 [7] | GI50 [8] | GI50 [9] | GI50 [10] | GI50 [11] | GI50 [12] | GI50 [13] | GI50 [14] | GI50 [15] | GI50 [16] | GI50 [17] | GI50 [18] | GI50 [19]
1 | CC(C)=CCCC(C)C1=C(O)C(=O)C(C)=CC1=O (stereo not drawn) | 7.73 µM (inactive) | 17.7 µM (inactive) | 9.29 µM (inactive) | 16.4 µM (inactive) | 9.12 µM (inactive) | 6.41 µM (inactive) | 0.614 µM (active) | 18.3 µM (inactive) | 0.336 µM (active) | 18.1 µM (inactive) | 18.7 µM (inactive) | 20.8 µM (inactive) | 18.9 µM (inactive) | 34 µM (inactive) | 22.9 µM (inactive) | 5.75 µM (inactive) | 17.6 µM (inactive) | 15.6 µM (inactive) | 3.66 µM (inactive)
2 | Cc1ccc(C(=O)/C=C(O)/C(O)=C/C(=O)c2ccc(C)cc2C)c(C)c1 | 1.8 µM (inactive) | 1.87 µM (inactive) | 1.86 µM (inactive) | 2.06 µM (inactive) | 1.71 µM (inactive) | 2.7 µM (inactive) | 0.175 µM (active) | 1.88 µM (inactive) | 2.96 µM (inactive) | 2.86 µM (inactive) | 2.04 µM (inactive) | 2.04 µM (inactive) | 1.58 µM (inactive) | 1.75 µM (inactive) | 1.75 µM (inactive) | 1.82 µM (inactive) | 2.36 µM (inactive) | 1.98 µM (inactive) | 2.16 µM (inactive)
3 | CC(C)c1ccc(/C(C(=O)O)=C(\O)C(=O)O)cc1 | > 100 µM (inactive) | > 100 µM (inactive) | > 100 µM (inactive) | > 100 µM (inactive) | > 100 µM (inactive) | > 100 µM (inactive) | > 100 µM (inactive) | > 100 µM (inactive) | > 100 µM (inactive) | > 100 µM (inactive) | > 100 µM (inactive) | > 100 µM (inactive) | > 100 µM (inactive) | > 100 µM (inactive) | > 100 µM (inactive) | > 100 µM (inactive) | > 100 µM (inactive) | > 100 µM (inactive) | > 100 µM (inactive)
4 | CC(C)(C)OC(=O)NC(CC(=O)OCc1ccccc1)C(=O)NC(C)(C)C(N)=O (stereo not drawn) (Boc-[ξD](OBn)-[Aib]-NH2) | > 100 µM (inactive) | > 100 µM (inactive) | > 100 µM (inactive) | > 100 µM (inactive) | > 100 µM (inactive) | > 100 µM (inactive) | > 100 µM (inactive) | > 100 µM (inactive) | > 100 µM (inactive) | > 100 µM (inactive) | > 100 µM (inactive) | > 100 µM (inactive) | > 100 µM (inactive) | > 100 µM (inactive) | > 100 µM (inactive) | > 100 µM (inactive) | > 100 µM (inactive) | > 100 µM (inactive) | > 100 µM (inactive)
5 | CC1(C)CCCCCC(O)C(O)CCC(C)(C)C1=O (stereo not drawn) | > 100 µM (inactive) | > 100 µM (inactive) | > 100 µM (inactive) | > 100 µM (inactive) | > 100 µM (inactive) | > 100 µM (inactive) | > 100 µM (inactive) | > 100 µM (inactive) | > 100 µM (inactive) | > 100 µM (inactive) | > 100 µM (inactive) | > 100 µM (inactive) | > 100 µM (inactive) | > 100 µM (inactive) | > 100 µM (inactive) | > 100 µM (inactive) | > 100 µM (inactive) | > 100 µM (inactive) | > 100 µM (inactive)
6 | COc1ccc(C2N(c3ccc(C)c(N=C=O)c3)C(=O)N3C(c4ccc(OC)cc4)N(c4ccc(C)c(N=C=O)c4)C(=O)N23)cc1 (stereo not drawn) | > 100 µM (inactive) | 49.7 µM (inactive) | 25.8 µM (inactive) | > 100 µM (inactive) | > 100 µM (inactive) | > 100 µM (inactive) | > 100 µM (inactive) | > 100 µM (inactive) | > 100 µM (inactive) | > 100 µM (inactive) | 44 µM (inactive) | > 100 µM (inactive) | > 100 µM (inactive) | > 100 µM (inactive) | > 100 µM (inactive) | 62.4 µM (inactive) | > 100 µM (inactive) | 38.9 µM (inactive) | > 100 µM (inactive)
7 | O=C(CCc1ccccc1)On1c(-c2ccccc2)nc2ccccc2c1=S | 18.9 µM (inactive) | 8.81 µM (inactive) | 3.61 µM (inactive) | 18.9 µM (inactive) | 22.9 µM (inactive) | 2.9 µM (inactive) | 1.77 µM (inactive) | 3.87 µM (inactive) | 4.6 µM (inactive) | 4.44 µM (inactive) | 65.8 µM (inactive) | 5.62 µM (inactive) | 3.66 µM (inactive) | 3.99 µM (inactive) | 4.38 µM (inactive) | 4.28 µM (inactive) | 9.71 µM (inactive) | 0.515 µM (active) | 0.456 µM (active)
